Experimental data from patent publication US20100261642A1, “NUTRITIONAL FORMULATION WITH HIGH ENERGY CONTENT” (N.V. NUTRICIA, priority 2007, published 2010).

Test system: intestinal epithelial cell lines T84
Assay: IL-4 mediated barrier disruption in T84 monolayers (flux and transepithelial resistance)
Format: cell-based, human
Conditions: for protective effect on IL-4 mediated barrier destruction (4 kD dextran flux), FIG. 1: 10 μM and 100 μM, time and dose dependent; for effect on IL-4 mediated barrier disruption (flux), in words: 100 μM, Table 1 summary, compared to control
Description: Monolayers (MC) of intestinal epithelial cell lines T84 (ATCC, USA) were cultured on transwell filters (Corning, Costar BV, The Netherlands) allowing both mucosal and serosal sampling and stimulation of human intestinal epithelial cells. Two weeks post confluency the monolayers were incubated in the presence of IL-4 (2 ng/ml, serosal compartment, Sigma, USA) with or without polyunsaturated fatty acids ARA, DHA, GLA, EPA, or control palmitic acid (10 μM or 100 μM, mucosal compartment, Sigma, St. Louis, USA). Cells were pre-incubated with ARA, DHA, EPA, or palmitic acid for 48 hr prior to the IL-4 incubation. The co-incubation of PUFA's and palmitic acid with IL-4 was continued for another 48 hr; while culture medium and additives were changed every 24 hr. The epithelial barrier function was determined by measuring the transepithelial resistance (TER) and permeability.

SMILES | IL-4 Flux (100 μM fatty acid, mucosal, IL-4 2 ng/ml, serosal, 48 hr pre-incubation + 48 hr co-incubation, permeability (4 kD dextran flux)) | IL-4 TER (100 μM fatty acid, mucosal, IL-4 2 ng/ml, serosal, 48 hr pre-incubation + 48 hr co-incubation, transepithelial resistance) | protective effect on IL-4 mediated barrier destruction (4 kD dextran flux), FIG. 1 | effect on IL-4 mediated barrier disruption (flux), in words
CC/C=C\C/C=C\C/C=C\C/C=C\C/C=C\C/C=C\CCC(=O)O [DHA, docosahexaenoic acid] | 271 | 547 |  | 
CCCCC/C=C\C/C=C\C/C=C\C/C=C\CCCC(=O)O [ARA, arachidonic acid] |  |  | protect against IL-4 mediated barrier disruption | inhibit the increased flux caused by IL-4
CCCCCCCCCCCCCCCC(=O)O [Palmitic acid, palmitic acid, reference compound] |  |  |  | detrimental effect
CCCCC/C=C\C/C=C\C/C=C\CCCCC(=O)O [GLA] |  |  | protect against IL-4 mediated barrier disruption | 
